test system: test plant species; assay: Post-emergent herbicidal activity test (greenhouse, foliar spray, visual growth reduction); assay type: in vivo; conditions: post-emergence, 336 h, ECHCG: barnyardgrass (Echinochloa crus-galli), 140 g ai/ha, 14 days after application, read-out: Visual Growth Reduction (%) 14 Days After Application, ECHCG
How it was run: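 Visual scoring 14 d after treatment (0 = no injury, 100 = complete control) against nontreated and solvent-blank plants gave percent growth reduction. Foliar application used a track sprayer delivering 187 L/ha to seedlings at first or second true leaf stage, grown at 23–29 °C day, ~15 h photoperiod.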

| SMILES | pest or weed control at 140 g/ha [%] |
| --- | --- |
| COC(=O)c1nc(-c2cccc(OC(F)(F)F)c2F)ccc1Cl [F290, Methyl 3-chloro-6-(2-fluoro-3-(trifluoromethoxy)phenyl)picolinate] | 0 to 29 |
| CSc1cc(-c2nc(C(=O)O)c(Cl)cc2F)c(Cl)cc1C(F)(F)F [F342, 3-Chloro-6-(2-chloro-5-(methylthio)-4-(trifluoromethyl)phenyl)-5-fluoropicolinic acid] | 0 to 29 |
| COC(=O)c1nc(-c2ccc(C)cc2)c(F)cc1Cl [F249, Methyl 3-chloro-5-fluoro-6-(p-tolyl)picolinate] | 0 to 29 |

same assay, conditions: post-emergence, 336 h, IPOHE: ivy-leaf morning glory (Ipomoea hederacea), 140 g ai/ha, 14 days after application, read-out: Visual Growth Reduction (%) 14 Days After Application, IPOHE

| SMILES | pest or weed control at 140 g/ha [%] |
| --- | --- |
| COC(=O)c1nc(-c2cccc(OC(F)(F)F)c2F)ccc1Cl [F290, Methyl 3-chloro-6-(2-fluoro-3-(trifluoromethoxy)phenyl)picolinate] | 75 to 84 |
| CSc1cc(-c2nc(C(=O)O)c(Cl)cc2F)c(Cl)cc1C(F)(F)F [F342, 3-Chloro-6-(2-chloro-5-(methylthio)-4-(trifluoromethyl)phenyl)-5-fluoropicolinic acid] | 85 to 94 |
| COC(=O)c1nc(-c2ccc(C)cc2)c(F)cc1Cl [F249, Methyl 3-chloro-5-fluoro-6-(p-tolyl)picolinate] | 0 to 29 |

same assay, conditions: post-emergence, 336 h, KCHSC: kochia (Bassia scoparia), 140 g ai/ha, 14 days after application, read-out: Visual Growth Reduction (%) 14 Days After Application, KCHSC

| SMILES | pest or weed control at 140 g/ha [%] |
| --- | --- |
| COC(=O)c1nc(-c2cccc(OC(F)(F)F)c2F)ccc1Cl [F290, Methyl 3-chloro-6-(2-fluoro-3-(trifluoromethoxy)phenyl)picolinate] | 0 to 29 |
| CSc1cc(-c2nc(C(=O)O)c(Cl)cc2F)c(Cl)cc1C(F)(F)F [F342, 3-Chloro-6-(2-chloro-5-(methylthio)-4-(trifluoromethyl)phenyl)-5-fluoropicolinic acid] | 85 to 94 |
| COC(=O)c1nc(-c2ccc(C)cc2)c(F)cc1Cl [F249, Methyl 3-chloro-5-fluoro-6-(p-tolyl)picolinate] | 0 to 29 |

same assay, conditions: post-emergence, 336 h, ORYSA: rice (Oryza sativa), 140 g ai/ha, 14 days after application, read-out: Visual Growth Reduction (%) 14 Days After Application, ORYSA

| SMILES | pest or weed control at 140 g/ha [%] |
| --- | --- |
| COC(=O)c1nc(-c2cccc(OC(F)(F)F)c2F)ccc1Cl [F290, Methyl 3-chloro-6-(2-fluoro-3-(trifluoromethoxy)phenyl)picolinate] | 0 to 29 |
| CSc1cc(-c2nc(C(=O)O)c(Cl)cc2F)c(Cl)cc1C(F)(F)F [F342, 3-Chloro-6-(2-chloro-5-(methylthio)-4-(trifluoromethyl)phenyl)-5-fluoropicolinic acid] | 0 to 29 |
| COC(=O)c1nc(-c2ccc(C)cc2)c(F)cc1Cl [F249, Methyl 3-chloro-5-fluoro-6-(p-tolyl)picolinate] | 0 to 29 |

same assay, conditions: post-emergence, 336 h, SETFA: giant foxtail (Setaria faberi), 140 g ai/ha, 14 days after application, read-out: Visual Growth Reduction (%) 14 Days After Application, SETFA

| SMILES | pest or weed control at 140 g/ha [%] |
| --- | --- |
| COC(=O)c1nc(-c2cccc(OC(F)(F)F)c2F)ccc1Cl [F290, Methyl 3-chloro-6-(2-fluoro-3-(trifluoromethoxy)phenyl)picolinate] | 0 to 29 |
| CSc1cc(-c2nc(C(=O)O)c(Cl)cc2F)c(Cl)cc1C(F)(F)F [F342, 3-Chloro-6-(2-chloro-5-(methylthio)-4-(trifluoromethyl)phenyl)-5-fluoropicolinic acid] | 30 to 44 |
| COC(=O)c1nc(-c2ccc(C)cc2)c(F)cc1Cl [F249, Methyl 3-chloro-5-fluoro-6-(p-tolyl)picolinate] | 0 to 29 |

same assay, conditions: post-emergence, 336 h, SORVU: grain sorghum (Sorghum vulgare), 140 g ai/ha, 14 days after application, read-out: Visual Growth Reduction (%) 14 Days After Application, SORVU

| SMILES | pest or weed control at 140 g/ha [%] |
| --- | --- |
| COC(=O)c1nc(-c2cccc(OC(F)(F)F)c2F)ccc1Cl [F290, Methyl 3-chloro-6-(2-fluoro-3-(trifluoromethoxy)phenyl)picolinate] | 0 to 29 |
| CSc1cc(-c2nc(C(=O)O)c(Cl)cc2F)c(Cl)cc1C(F)(F)F [F342, 3-Chloro-6-(2-chloro-5-(methylthio)-4-(trifluoromethyl)phenyl)-5-fluoropicolinic acid] | 30 to 44 |
| COC(=O)c1nc(-c2ccc(C)cc2)c(F)cc1Cl [F249, Methyl 3-chloro-5-fluoro-6-(p-tolyl)picolinate] | 0 to 29 |

same assay, conditions: post-emergence, 336 h, STEME: common chickweed (Stellaria media), 140 g ai/ha, 14 days after application, read-out: Visual Growth Reduction (%) 14 Days After Application, STEME

| SMILES | pest or weed control at 140 g/ha [%] |
| --- | --- |
| COC(=O)c1nc(-c2cccc(OC(F)(F)F)c2F)ccc1Cl [F290, Methyl 3-chloro-6-(2-fluoro-3-(trifluoromethoxy)phenyl)picolinate] | 0 to 29 |
| CSc1cc(-c2nc(C(=O)O)c(Cl)cc2F)c(Cl)cc1C(F)(F)F [F342, 3-Chloro-6-(2-chloro-5-(methylthio)-4-(trifluoromethyl)phenyl)-5-fluoropicolinic acid] | 0 to 29 |
| COC(=O)c1nc(-c2ccc(C)cc2)c(F)cc1Cl [F249, Methyl 3-chloro-5-fluoro-6-(p-tolyl)picolinate] | 0 to 29 |

same assay, conditions: post-emergence, 336 h, TRZAS: wheat, spring (Triticum aestivum), 140 g ai/ha, 14 days after application, read-out: Visual Growth Reduction (%) 14 Days After Application, TRZAS

| SMILES | pest or weed control at 140 g/ha [%] |
| --- | --- |
| COC(=O)c1nc(-c2cccc(OC(F)(F)F)c2F)ccc1Cl [F290, Methyl 3-chloro-6-(2-fluoro-3-(trifluoromethoxy)phenyl)picolinate] | 0 to 29 |
| CSc1cc(-c2nc(C(=O)O)c(Cl)cc2F)c(Cl)cc1C(F)(F)F [F342, 3-Chloro-6-(2-chloro-5-(methylthio)-4-(trifluoromethyl)phenyl)-5-fluoropicolinic acid] | 30 to 44 |
| COC(=O)c1nc(-c2ccc(C)cc2)c(F)cc1Cl [F249, Methyl 3-chloro-5-fluoro-6-(p-tolyl)picolinate] | 0 to 29 |

same assay, conditions: post-emergence, 336 h, blackgrass (Alopecurus myosuroides), 14 Days After Application, 140 g ai/ha, read-out: Visual Growth Reduction (%) ALOMY

| SMILES | pest or weed control at 140 g/ha [%] |
| --- | --- |
| COC(=O)c1nc(-c2cccc(OC(F)(F)F)c2F)ccc1Cl [F290, Methyl 3-chloro-6-(2-fluoro-3-(trifluoromethoxy)phenyl)picolinate] | 0 to 29 |
| CSc1cc(-c2nc(C(=O)O)c(Cl)cc2F)c(Cl)cc1C(F)(F)F [F342, 3-Chloro-6-(2-chloro-5-(methylthio)-4-(trifluoromethyl)phenyl)-5-fluoropicolinic acid] | 0 to 29 |
| COC(=O)c1nc(-c2ccc(C)cc2)c(F)cc1Cl [F249, Methyl 3-chloro-5-fluoro-6-(p-tolyl)picolinate] | 0 to 29 |

same assay, conditions: post-emergence, 336 h, canada thistle (Cirsium arvense), 14 Days After Application, 140 g ai/ha, read-out: Visual Growth Reduction (%) CIRAR

| SMILES | pest or weed control at 140 g/ha [%] |
| --- | --- |
| COC(=O)c1nc(-c2cccc(OC(F)(F)F)c2F)ccc1Cl [F290, Methyl 3-chloro-6-(2-fluoro-3-(trifluoromethoxy)phenyl)picolinate] | 0 to 29 |
| COC(=O)c1nc(-c2ccc(C)cc2)c(F)cc1Cl [F249, Methyl 3-chloro-5-fluoro-6-(p-tolyl)picolinate] | 0 to 29 |

same assay, conditions: post-emergence, 336 h, crabgrass (Digitaria sanguinalis), 14 Days After Application, 140 g ai/ha, read-out: Visual Growth Reduction (%) DIGSA

| SMILES | pest or weed control at 140 g/ha [%] |
| --- | --- |
| COC(=O)c1nc(-c2cccc(OC(F)(F)F)c2F)ccc1Cl [F290, Methyl 3-chloro-6-(2-fluoro-3-(trifluoromethoxy)phenyl)picolinate] | 0 to 29 |
| CSc1cc(-c2nc(C(=O)O)c(Cl)cc2F)c(Cl)cc1C(F)(F)F [F342, 3-Chloro-6-(2-chloro-5-(methylthio)-4-(trifluoromethyl)phenyl)-5-fluoropicolinic acid] | 0 to 29 |
| COC(=O)c1nc(-c2ccc(C)cc2)c(F)cc1Cl [F249, Methyl 3-chloro-5-fluoro-6-(p-tolyl)picolinate] | 0 to 29 |

same assay, conditions: post-emergence, 336 h, lambsquarters (Chenopodium album), 14 Days After Application, 140 g ai/ha, read-out: Visual Growth Reduction (%) CHEAL

| SMILES | pest or weed control at 140 g/ha [%] |
| --- | --- |
| COC(=O)c1nc(-c2cccc(OC(F)(F)F)c2F)ccc1Cl [F290, Methyl 3-chloro-6-(2-fluoro-3-(trifluoromethoxy)phenyl)picolinate] | 0 to 29 |
| CSc1cc(-c2nc(C(=O)O)c(Cl)cc2F)c(Cl)cc1C(F)(F)F [F342, 3-Chloro-6-(2-chloro-5-(methylthio)-4-(trifluoromethyl)phenyl)-5-fluoropicolinic acid] | 60 to 74 |
| COC(=O)c1nc(-c2ccc(C)cc2)c(F)cc1Cl [F249, Methyl 3-chloro-5-fluoro-6-(p-tolyl)picolinate] | 60 to 74 |

same assay, conditions: post-emergence, 336 h, redroot pigweed (Amaranthus retroflexus), 14 Days After Application, 140 g ai/ha, read-out: Visual Growth Reduction (%) AMARE

| SMILES | pest or weed control at 140 g/ha [%] |
| --- | --- |
| COC(=O)c1nc(-c2cccc(OC(F)(F)F)c2F)ccc1Cl [F290, Methyl 3-chloro-6-(2-fluoro-3-(trifluoromethoxy)phenyl)picolinate] | 0 to 29 |
| CSc1cc(-c2nc(C(=O)O)c(Cl)cc2F)c(Cl)cc1C(F)(F)F [F342, 3-Chloro-6-(2-chloro-5-(methylthio)-4-(trifluoromethyl)phenyl)-5-fluoropicolinic acid] | 0 to 29 |
| COC(=O)c1nc(-c2ccc(C)cc2)c(F)cc1Cl [F249, Methyl 3-chloro-5-fluoro-6-(p-tolyl)picolinate] | 0 to 29 |

same assay, conditions: post-emergence, 336 h, wild oat (Avena fatua), 14 Days After Application, 140 g ai/ha, read-out: Visual Growth Reduction (%) AVEFA

| SMILES | pest or weed control at 140 g/ha [%] |
| --- | --- |
| COC(=O)c1nc(-c2cccc(OC(F)(F)F)c2F)ccc1Cl [F290, Methyl 3-chloro-6-(2-fluoro-3-(trifluoromethoxy)phenyl)picolinate] | 0 to 29 |
| CSc1cc(-c2nc(C(=O)O)c(Cl)cc2F)c(Cl)cc1C(F)(F)F [F342, 3-Chloro-6-(2-chloro-5-(methylthio)-4-(trifluoromethyl)phenyl)-5-fluoropicolinic acid] | 0 to 29 |
| COC(=O)c1nc(-c2ccc(C)cc2)c(F)cc1Cl [F249, Methyl 3-chloro-5-fluoro-6-(p-tolyl)picolinate] | 0 to 29 |

same assay, conditions: post-emergence, 336 h, yellow nutsedge (Cyperus esculentus), 14 Days After Application, 140 g ai/ha, read-out: Visual Growth Reduction (%) CYPES

| SMILES | pest or weed control at 140 g/ha [%] |
| --- | --- |
| COC(=O)c1nc(-c2cccc(OC(F)(F)F)c2F)ccc1Cl [F290, Methyl 3-chloro-6-(2-fluoro-3-(trifluoromethoxy)phenyl)picolinate] | 60 to 74 |
| CSc1cc(-c2nc(C(=O)O)c(Cl)cc2F)c(Cl)cc1C(F)(F)F [F342, 3-Chloro-6-(2-chloro-5-(methylthio)-4-(trifluoromethyl)phenyl)-5-fluoropicolinic acid] | 0 to 29 |
| COC(=O)c1nc(-c2ccc(C)cc2)c(F)cc1Cl [F249, Methyl 3-chloro-5-fluoro-6-(p-tolyl)picolinate] | 0 to 29 |
